The test system of one experiment is P. falciparum 3D7. Put plainly: in vitro inhibition of parasite growth by [3H] hypoxanthine incorporation, drugs alone. In kind it is cell-based. Conditions: Plasmodium falciparum; for IC50: 3D7, P. falciparum 3D7 (chloroquine sensitive). The protocol: (§1) 1. Initial determination of the in vitro efficacy profile (IC50/IC90) of FOS and PIP against a drug sensitive and a drug resistant strain of Plasmodium falciparum. P. falciparum 3D7 is chloroquine sensitive, P. falciparum K1 is insensitive to chloroquine
(§2) in vitro inhibition of parasite growth was assessed by the incorporation of [3H] hypoxanthine, including chloroquine (CQ) and artesunate (ASN) as positive control drugs.
(§3) The first set of in vitro experiments established the IC50 values of the drugs alone, followed by Fixed Ratio Combination assays of FOS+PIP with FOS+CND as a control combination. Chloroquine and artesunate were included in all assays to ensure the validity of the test.
(§4) The first sets of experiments were carried out to establish the IC50 and IC90 values of the drugs on their own. The drugs were evaluated in 3 separate experiments (see Tables 1 & 2)

For a further experiment, the system named is P. falciparum K1. The experiment is described as above. The experiment is classed as cell-based. Conditions: Plasmodium falciparum; for IC50: K1, P. falciparum K1 (insensitive to chloroquine). As to the method:
as §1, §2, §3, §4

[1] abbreviates: 3D7, P. falciparum 3D7, Experiment 1.
Where [2] appears, read: 3D7, P. falciparum 3D7, Experiment 2.
Where [3] appears, read: 3D7, P. falciparum 3D7, Experiment 3.

Where two headings read alike, the source gives them in different places.

The IC50 is the concentration that inhibits the measured activity by half. Usually IC90 stands for the point of the concentration-response curve where the effect stands at 90%. As to `C[C@H]1[C@H](OC(=O)CCC(=O)O)O[C@@H]2O[C@@]3(C)CC[C@H]4[C@H](C)CC[C@@H]1[C@@]24OO3` [ASN, Artesunate], the IC50 was 1.9 ng/mL in the experiment with P. falciparum 3D7 (Experiment 1); 2 ng/mL with P. falciparum 3D7 (Experiment 2); 0.8 ng/mL with P. falciparum 3D7 (Experiment 3); 5 ng/mL with P. falciparum K1 (Experiment 1); 2 ng/mL with P. falciparum K1 (Experiment 2); 2 ng/mL in the experiment with P. falciparum K1 (Experiment 3). In addition, the IC90 in the experiment with P. falciparum 3D7 (setting [1]) was determined as 7 ng/mL; in the experiment on P. falciparum 3D7 (setting [2]), 2 ng/mL; with P. falciparum 3D7 (setting [3]) it was 2 ng/mL; in the experiment on P. falciparum K1 (K1, P. falciparum K1, Experiment 1), 6 ng/mL; in the experiment on P. falciparum K1 (K1, P. falciparum K1, Experiment 2), 3 ng/mL; with P. falciparum K1 (K1, P. falciparum K1, Experiment 3) it was 4 ng/mL.

Take `Clc1ccc2c(N3CCN(CCCN4CCN(c5ccnc6cc(Cl)ccc56)CC4)CC3)ccnc2c1` [PIP, 7-chloro-4-[4-[3-[4-(7-chloroquinolin-4-yl)piperazin-1-yl]propyl]piperazin-1-yl]quinoline]: the IC50 in the experiment with P. falciparum 3D7 (Experiment 1) came to 10 ng/mL; with P. falciparum 3D7 (Experiment 2), 6 ng/mL; in the experiment on P. falciparum 3D7 (Experiment 3), 10 ng/mL; with P. falciparum K1 (Experiment 1, read-out: IC50) it was 20 ng/mL; in the experiment on P. falciparum K1 (Experiment 2, read-out: IC50), 20 ng/mL; with P. falciparum K1 (Experiment 3, read-out: IC50) it was 10 ng/mL. Further, the IC90 is 18 ng/mL with P. falciparum 3D7 (setting [1]); 20 ng/mL with P. falciparum 3D7 (setting [2]); 10 ng/mL with P. falciparum 3D7 (setting [3]); 60 ng/mL in the experiment with P. falciparum K1 (K1, P. falciparum K1, Experiment 1, read-out: IC90); 50 ng/mL with P. falciparum K1 (K1, P. falciparum K1, Experiment 2, read-out: IC90); 20 ng/mL with P. falciparum K1 (K1, P. falciparum K1, Experiment 3, read-out: IC90).

The values are drawn from US20130231296A1, “NEW DRUG COMBINATIONS FOR THE TREATMENT OF MALARIA” (Bioagency AG, priority 2010, published 2013).
